The values below come from patent publication US9791449B2, “Ovarian cancer stem cells and methods of isolation and uses thereof” (THE GENERAL HOSPITAL CORPORATION, priority 2011, dated 2017).

Assay [1] concerns OVCAR-5 cells. Kind of assay: Cell proliferation assay in monolayer (trypan blue count plus flow cytometry). Type of assay: cell-based, human. The conditions noted are these: for proliferation of 3+/Ecad+ population / proliferation of 3+/Ecad− population: OVCAR-5, doxorubicin 60 nM, 1, 2 and 3 days. As to the method: OVCAR-5 cells were seeded in T-75 flasks at different densities (1.6×10^6, 1.2×10^6, 0.8×10^6 cells) with DMEM in 10% FCS, incubated for 24 h, and then treated with either PBS (control) or 60 nM doxorubicin for 24, 48, and 72 h. Cells seeded at 0.8×10^6 were also treated with cisplatin (0.2, 0.5, 1 μM) for 72 h. Harvested total viable cells were counted by trypan blue staining in a hemocytometer and stained with antihuman CD24-PE, anti-mouse/human CD44-APC/Cy7, anti-human Epcam-APC, and anti-human Ecadherin-FITC. Flow cytometry was performed to analyze for the absolute number of 3+/Ecad− and 3+/Ecad+ cells, which were calculated from the total viable cell numbers by analyzing the percentage of each population adjusted for seeding density (1×, 1.5×, and 2×, respectively).
(In flow cytometry, cells or beads pass a laser one at a time.)

Assay [2] deals with ovarian cancer cells marked by CD44, CD24, and Epcam (3+). The conditions noted are these: after treatment with chemotherapeutics; cited from earlier work.
The subject of assay [3] is 3+/Ecad− OVCAR-5 cells. Kind of assay: Colony formation assay of FACS-separated cells. Type of assay: cell-based, human. The following applies: OVCAR-5 3+/Ecad− cells, 2000 cells in six-well plates, MIS 30 ug/ml or Doxorubicin 30 nM vs media, 14 days. As to the method: Colony formation was performed as previously described (4; wei 2010). 3+/Ecad− or 3−/Ecad+ cells separated from the ovarian cancer cell lines were treated with MIS or doxorubicin, cisplatin, or taxol, then plated on 6-well plates containing 2 ml/well complete DMEM medium at 500, 1000, or 2000 cells/well, and incubated for 14 days at 37° C., with a media change at day 7. Cells separated from primary ascites were plated on 12-well plates coated by metrigel or by agarose for colony formation assays at 25,000, 50,000, or 100,000 cells/well. Cells were seeded on 1:2 metrigel or in 0.4% agarose over a 0.8% layer, and incubated for 3-4 weeks at 37° C. At day 14 (cell lines) or day 21 (ascites), plates were washed with 1×PBS, and cells fixed with methanol. Resulting colonies were stained with Giemsa and the stained area captured and analyzed using Image J (Rasband, NIH, USA, http://rsb.info.nih.gov/ij/). Large colonies greater than 4 mm at 10× magnification were also counted and compared.

The test system of assay [4] is MOVCAR-7 and MOVCAR-8 cell lines. Kind of assay: qPCR of CDK inhibitor mRNAs relative to GAPDH. Type of assay: cell-based, mouse. Here is the method: Total microRNA (miRNAs) were extracted from the different cell lines HOSE-4, HOSE-6, OVCAR-5, OVCAR-3, OVCAR-8, IGROV-1, and SKOV-3 using the miRNeasy Mini kit (QIAGEN) and reverse-transcribed to cDNAs using the TaqMan MicroRNA Reverse Transcription Kit (Applied Biosystems). Levels of Let-7c miRNAs were measured by quantitative PCR using TagMan Let-7 probes (Applied Biosystems; part no. 4373167) with U47 RNA as internal standard for normalization. Total mRNAs were also extracted from separated and unseparated OVCAR-5, MOVCAR-7, and MOVCAR-8 cell lines using an RNeasy Mini kit (QIAGEN) and reverse-transcribed to cDNAs using the SuperScript III Reverse Transcription Kit (Invitrogen). Levels of Lin28 and cyclin-dependent kinase (CDK) inhibitor mRNAs were measured by quantitative PCR with GAPDH as an internal standard using the following primers: […]
LIN28 F ([…])(SEQ ID NO: 34) and R ([…])(SEQ ID NO: 35); p15 F ([…])(SEQ ID NO: 36) and R ([…])(SEQ ID NO: 37); p16 F ([…])(SEQ ID NO: 38) and R ([…])(SEQ ID NO: 39); p18 F ([…])(SEQ ID NO: 40) and R ([…])(SEQ ID NO: 41); p19F ([…])(SEQ ID NO: 42) and R ([…])(SEQ ID NO: 43); p21 F ([…])(SEQ ID NO: 44) and R ([…])(SEQ ID NO: 45); p27 F ([…])(SEQ ID NO: 46) and R ([…])(SEQ ID NO: 47); CDK2 F ([…])(SEQ ID NO: 48) and R ([…])(SEQ ID NO: 49); CDK4 F ([…])(SEQ ID NO: 50) and R([…])(SEQ ID NO: 51); CDK6 F ([…])(SEQ ID NO: 52) and R ([…])(SEQ ID NO: 53); and GAPDH F ([…])(SEQ ID NO: 54) and R ([…])(SEQ ID NO: 55). Relative fold changes of Let-7c miRNAs and Lin28 and CDK inhibitor mRNAs were calculated as ΔCt or ΔΔCt (1) (n=3 for each primer).
(In qPCR the cycle at which signal appears reflects the starting amount.)

In assay [5] the test system is OVCAR-5 cells. Kind of assay: Cell cycle analysis by flow cytometry. Type of assay: cell-based, human. As to the method: OVCAR-5 was grown to 50-60% confluency in DMEM with 10% FCS, untreated or treated with 100 μg/mL (714 nM) MIS or 60 nM doxorubicin for 48 h, harvested, and incubated with 10 μg/mL Hoechst 33342 at 37° C. for 30 min or 40 μg/mL propidium iodide (Sigma) at 25° C. for 30 min. Cells were stained with anti-human CD24-PE, anti-mouse/human CD44-APC/Cy7, anti-human Epcam-APC, and anti-human Ecadherin-FITC for 20 min at 4° C. and fixed in paraformaldehyde (1%), and the cell cycle was analyzed using the SORP LSRII.

Setting [6] is: OVCAR-5, cisplatin 0.2, 0.5 and 1 μM, 3 d, absolute cell number.
The mark [7] stands for this setting: absolute cell number, listed as Doxorubicin.

Entries after “also recorded” stand apart in the source; their conditions may differ.

Consider `N.N.[Cl][Pt][Cl]` [cisplatin], for which the “proliferation of total viable cells” value in assay [1] (OVCAR-5, cisplatin 0.2, 0.5 and 1 μM, 3 d) is “inhibits proliferation”. Further, in assay [1] (setting [6]), the “proliferation of 3+Ecad− population” value is “increased” and the “proliferation of 3−Ecad+ population” value is “inhibits proliferation”. For the same compound, the “proliferation of 3+Ecad− population” value in assay [1] (OVCAR-5, cisplatin 0.2, 0.5 and 1 μM, 3 d, absolute cell number, listed as Cisplatin) is on record as “stimulates”. In addition, the “relative numbers of 3+ enriched population compared to 3− cells” value (shortened to “relative numbers”) in assay [2] is on record as “increased”.

Consider `COc1cccc2c1C(=O)c1c(O)c3c(c(O)c1C2=O)C[C@@](O)(C(=O)CO)C[C@@H]3O[C@H]1C[C@H](N)[C@H](O)[C@H](C)O1` [doxorubicin, reference compound], for which the “proliferation of 3+/Ecad+ population” value was “decreased” in assay [1] (absolute cell number) and “inhibits proliferation” in assay [1] (setting [7]). Besides, the “proliferation of 3+/Ecad− population” value in assay [1] (absolute cell number) is given as “paradoxically increased”; in assay [1] (setting [7]) it was “stimulates”. In addition, the “proliferation of total viable cells” value is given as “significant inhibition” in assay [1] (unseparated OVCAR-5, doxorubicin 60 nM, 1, 2 and 3 days); “inhibits proliferation” in assay [1] (unseparated OVCAR-5, doxorubicin 60 nM, 1, 2 and 3 days, listed as Doxorubicin). Moreover, the “colony formation of 3+/Ecad− cells” value in assay [3] is given as “significantly increased number of colonies; also recorded: significantly increases; also recorded: stimulated; also recorded: paradoxically increased; also recorded: significantly increased colony numbers”; in assay [3] (listed as Doxorubicin), “paradoxically increased significantly”. For the same compound, the p15 expression result in assay [4] (MOVCAR-7 and -8, 50 μg/mL MIS or 60 nM doxorubicin vs vehicle, 4 h) is “decreased; also recorded: significant and opposite responses”. Moreover, the “other CDK inhibitors mRNA levels (p18, p19, p21, p27)” value in assay [4] (MOVCAR-7 or -8, 50 μg/mL MIS or 60 nM doxorubicin, 4 h) is given as “did not regulate significantly”. In addition, the “kinases tested (CDK2, CDK4, CDK6)” value in assay [4] (transgenic cell lines treated with MIS or doxorubicin, data not shown) is “unaffected”. Further, the “percentage of 3+/Ecad− cells in G1” value in assay [5] (100 μg/mL (714 nM) MIS or 60 nM doxorubicin, 48 h) is recorded as “decreased”. In assay [5] (doxorubicin 60 nM, 2 d), the “S or G2 distributions of either 3+Ecad− or 3−Ecad+” value was “did not statistically affect”. The “relative numbers” value in assay [2] is reported as “increased”.

In the case of `CC(=O)O[C@H]1C(=O)[C@@]2(C)[C@H]([C@H](OC(=O)c3ccccc3)[C@]3(O)C[C@H](OC(=O)[C@H](O)[C@@H](NC(=O)c4ccccc4)c4ccccc4)C(C)=C1C3(C)C)[C@]1(OC(C)=O)CO[C@@H]1C[C@@H]2O` [paclitaxel], the “relative numbers” value in assay [2] was “increased”.
